# Patent publication US20250171451A1, “NOVEL HETEROCYCLIC COMPOUND AND PHARMACEUTICAL COMPOSITION COMPRISING SAME” (Samjin Pharmaceutical Co., Ltd., priority 2022, published 2025)
# Columns and labels:
# [1] = molecular target: T1, recombinant GST-TEAD1 proteins (209 to 426 a.a.) (Homo sapiens, UniProt P28347); assay: Evaluation of palmitoylation of TEAD protein; assay type: biochemical; conditions: 5 μM compound, 15 minutes preincubation, 3 μM alkyne palmitoyl-CoA 30 minutes, pH 6.4, vs DMSO control
# T1 construct: recombinant GST-TEAD1 proteins (209 to 426 a.a.)
# In short: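 GST-TEAD1 (aa 209–426) preincubated 15 min with 5 μM compound, then autopalmitoylated 30 min with 3 μM alkyne palmitoyl-CoA in 50 mM MES pH 6.4; stopped with 1% SDS. Click biotinylation, SDS-PAGE and streptavidin-HRP blot; band intensity relative to DMSO control, normalised to anti-GST signal.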
# [2] = test system: TEAD response element (TRE) luciferase reporter in MCF-7 cell lines; assay: TEAD response element (TRE) reporter assay; assay type: cell-based; conditions: Homo sapiens, MCF7; 0.2 μM compound, 24 hours, MCF-7 TEAD reporter cells, relative to vehicle (1% DMSO)
# In short: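 MCF-7 cells stably carrying a TRE-driven firefly luciferase reporter, treated 24 h after plating with compound at 0.2 μM final (1% DMSO) in serum-free medium for 24 h. Luminescence expressed relative to vehicle control set at 10000.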
# [3] = test system: NF2-deficient mesothelioma cell line NCI-H226; assay: Evaluation of inhibition of cancer cell proliferation (CellTiter-Glo); assay type: cell-based; conditions: Homo sapiens, 120 h, NCI-H226 cells, five days treatment, 2% FBS, read-out: Cancer cell growth inhibition NCI-H226 (GI50)
# Description: The NF2-deficient mesothelioma cell line NCI-H226 was purchased from ATCC (#CRL-5826). NCI-H226 cells were cultured in RRPMI medium (ATCC) containing penicillin (100 units/mL), streptomycin (100 μg/mL) and 10% fetal bovine serum (FBS) at 37° C. and 5% CO2.
# In 24 hours after dispensing said NCI-H226 cells into a 96-well plate, the cell culture medium was removed all, and then each compound corresponding to a certain concentration section (0.01, 0.05, 0.1, 0.5, 1, 5, 10 μM) or a vehicle solvent (final 1% DMSO) was diluted with a culture medium containing 2% FBS, treated at 100 μL for each well, and then cultured at 37° C. and 5% CO2. In five days after said treatment, CellTiter-Glo@2.0 Reagent (Promega) was treated in the same amount as the culture medium to measure cell growth, and placed in a shaker for two minutes so as to be well mixed, after which the plate was cultured at room temperature for ten minutes to stabilize a luminescence signal. After that, for ATP measurement through an intracellular luciferase reaction, the luminescence signal was measured using a microplate reader (TECAN). The value of the […] (GI50) at the moment when the cell proliferation was reduced by half was derived using the SoftMax Pro 5.4.1 program, and the results are shown in table 10 below.
# T1 sequence (P28347 209-426): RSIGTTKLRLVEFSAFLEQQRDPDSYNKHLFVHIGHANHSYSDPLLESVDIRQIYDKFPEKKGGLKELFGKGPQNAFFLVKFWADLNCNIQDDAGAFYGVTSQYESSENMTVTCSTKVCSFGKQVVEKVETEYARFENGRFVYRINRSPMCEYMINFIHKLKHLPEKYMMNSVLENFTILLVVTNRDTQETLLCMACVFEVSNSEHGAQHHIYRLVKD
inhibition at 5 µM [1],GI50 [3],Structure (SMILES),inhibition at 0.2 µM [2]
40 to 80%,0.03 µM,"C=CC(=O)Nc1cnc2c(c1)c(C)nn2-c1ccc(C(F)(F)F)nc1 [Compound 77, N-(3-methyl-1-(6-(trifluoromethyl)pyridin-3-yl)-1H-pyrazolo[3,4-b]pyridin-5-yl)acrylamide]",> 50%
40 to 80%,0.05 µM,"C=CC(=O)N(C)c1cnc2c(c1)c(C)nn2-c1ccc(C(F)(F)F)nc1 [Compound 92, N-methyl-N-(3-methyl-1-(6-(trifluoromethyl)pyridin-3-yl)-1H-pyrazolo[3,4-b]pyridin-5-yl)acrylamide]",> 50%
> 80%,0.05 µM,"C=CC(=O)Nc1cnc2c(c1)c(C)nn2-c1ccc(Cl)cc1 [Compound 65, N-(1-(4-chlorophenyl)-3-methyl-1H-pyrazolo[3,4-b]pyridin-5-yl)acrylamide]",> 50%
> 80%,0.07 µM,"C=CC(=O)Nc1cnc2c(c1)c(C)cn2Cc1ccc(C(F)(F)F)cc1 [Compound 3, N-(3-methyl-1-(4-(trifluoromethyl)benzyl)-1H-pyrrolo[2,3-b]pyridin-5-yl)acrylamide]",> 50%
> 80%,0.03 µM,"C=CC(=O)N(C)c1cnc2c(c1)c(C)nn2-c1ccc(C(F)(F)F)cc1 [Compound 86, N-methyl-N-(3-methyl-1-(4-(trifluoromethyl)phenyl)-1H-pyrazolo[3,4-b]pyridin-5-yl)acrylamide]",> 50%
> 80%,0.08 µM,"C=CC(=O)Nc1cnc2c(c1)c(C)cn2-c1ccc(C(F)(F)F)cc1 [Compound 27, N-(3-methyl-1-(4-(trifluoromethyl)phenyl)-1H-pyrrolo[2,3-b]pyridin-5-yl)acrylamide]",> 50%
> 80%,0.22 µM,"C=CC(=O)Nc1cnc2c(c1)c(Cl)cn2Cc1ccc(C(F)(F)F)cc1 [Compound 43, N-(3-chloro-1-(4-(trifluoromethyl)benzyl)-1H-pyrrolo[2,3-b]pyridin-5-yl)acrylamide]",> 50%
> 80%,0.05 µM,"C=CC(=O)Nc1cnc2c(c1)c(C)nn2-c1ccc(OC(F)(F)F)cc1 [Compound 66, N-(3-methyl-1-(4-(trifluoromethoxy)phenyl)-1H-pyrazolo[3,4-b]pyridin-5-yl)acrylamide]",> 50%

# More lines, now with the values behind:
Structure (SMILES),inhibition at 5 µM [1],GI50 [3],inhibition at 0.2 µM [2]
C=CC(=O)Nc1cnc2c(c1)c(C)nn2-c1cc(Cl)c(Cl)cc1C [Compound 105],40 to 80%,0.26 µM,> 50%
"C=CC(=O)Nc1cnc2c(c1)c(Br)cn2Cc1ccc(C(F)(F)F)cc1 [Compound 40, N-(3-bromo-1-(4-(trifluoromethyl)benzyl)-1H-pyrrolo[2,3-b]pyridin-5-yl)acrylamide]",> 80%,0.22 µM,> 50%
"C=CC(=O)N(C)c1cnc2c(c1)c(C)nn2-c1ccc(OC(F)(F)F)cc1 [Compound 90, N-methyl-N-(3-methyl-1-(4-(trifluoromethoxy)phenyl)-1H-pyrazolo[3,4-b]pyridin-5-yl)acrylamide]",> 80%,0.03 µM,> 50%
"C=CC(=O)Nc1cnc2c(c1)c(C)cn2-c1ccc(Cl)cc1 [Compound 54, N-(1-(4-chlorophenyl)-3-methyl-1H-pyrrolo[2,3-b]pyridin-5-yl)acrylamide]",40 to 80%,0.17 µM,> 50%
"C=CC(=O)Nc1cnc2c(c1)c(C)nn2-c1ccc(C(F)(F)F)cc1 [Compound 42, N-(3-methyl-1-(4-(trifluoromethyl)phenyl)-1H-pyrazolo[3,4-b]pyridin-5-yl)acrylamide]",> 80%,0.01 µM,> 50%
"C=CC(=O)Nc1cnc2c(c1)c(C)nn2-c1cnc(C(F)(F)F)nc1 [Compound 95, N-(3-methyl-1-(2-(trifluoromethyl)pyrimidin-5-yl)-1H-pyrazolo[3,4-b]pyridin-5-yl)acrylamide]",40 to 80%,0.3 µM,> 50%
"C=CC(=O)Nc1cnc2c(c1)c(C)cn2-c1cccc(C(F)(F)F)c1 [Compound 50, N-(3-methyl-1-(3-(trifluoromethyl)phenyl)-1H-pyrrolo[2,3-b]pyridin-5-yl)acrylamide]",> 80%,0.28 µM,> 50%
"C=CC(=O)Nc1ccc2cnn(Cc3ccc(C(F)(F)F)cc3)c2c1 [Compound 17, N-(1-(4-(trifluoromethyl)benzyl)-1H-indazol-6-yl)acrylamide]",40 to 80%,–,30 to 50%
